# Key:
# [1] = test system: Male mice (C57BL/6NCrj) loaded with a high-cholesterol feed; experiment: Lowering action for cholesterol in blood and lipid in blood, mice loaded with high-cholesterol feed; assay type: in vivo; conditions: relative value, medium group = 100%
# Description: Lowering action for cholesterol in blood and lipid in blood:
# Male mice of seven weeks age (C57BL/6NCrj) was loaded with a high-cholesterol feed (CRF-1 Solid Feed in which 5.5% of peanut oil, 1.5% of cholesterol and 0.5% of cholic acid were mixed; Oriental Bio Service) for six days, then body weight of the […] was measured under fasting and the following various parameter concentrations were measured. Measured items were LDL, HDL, TG value, NEFA and TC value. […] From the next day, a compound suspended in a medium (a 0.5% methyl cellulose solution) was compulsorily administered per os once daily for continuous six days and, at the same time, loading with the high cholesterol feed was continued as well. On the next day of the final administration (i.e., on the seventh day from the start of the administration), lipid levels in blood (TG, HDL, LDL, NEFA and TC values) were measured.
# When the data were expressed as relative values where the value for the group to which a medium was administered was defined as 100%, a raising action for HDL and a lowering action for LDL of the compound produced in Example 9 (47) were as shown in Table 2.
# human PPAR δ = molecular target: T1, human PPAR δ (Homo sapiens, UniProt Q03181); experiment: Luciferase assay using human PPAR δ (Gal4-PPAR δ ligand binding domain chimera, CV-1 cells); assay type: cell-based; conditions: relative value, carbacyclin at 30 μM defined as 1
# T1 construct: expressed in transfected cells; host or cells: CV-1 cells
# T1 sequence (Q03181 139-441): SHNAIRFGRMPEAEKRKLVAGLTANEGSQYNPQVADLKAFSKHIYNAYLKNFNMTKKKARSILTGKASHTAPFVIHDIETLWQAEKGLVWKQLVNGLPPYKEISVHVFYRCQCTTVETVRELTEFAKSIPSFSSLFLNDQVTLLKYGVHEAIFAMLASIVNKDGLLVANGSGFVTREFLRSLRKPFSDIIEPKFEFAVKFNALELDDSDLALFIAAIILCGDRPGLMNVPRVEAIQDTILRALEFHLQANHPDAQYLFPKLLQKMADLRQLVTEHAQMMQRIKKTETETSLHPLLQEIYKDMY
# [2] = dose 3 mg/kg per os once daily for six days
# [3] = dose 10 mg/kg per os once daily for six days
# [4] = dose 30 mg/kg per os once daily for six days
compound,measurement,setting,value
"Cc1cc(Oc2ccc(C)cc2OCC#Cc2ccc(C(F)(F)F)cc2)cc(C(=O)O)c1 [Example 9 (47), 3-methyl-5-[4-methyl-2-({3-[4-(trifluoromethyl)phenyl]-2-propynyl}oxy)phenoxy]benzoic acid]",HDL-raising action,[1]; [2],112.0%
same,LDL-lowering action,[1]; [2],89.7%
same,HDL-raising action,[1]; [3],110.2%
same,LDL-lowering action,[1]; [3],85.3%
same,HDL-raising action,[1]; [4],130.7%
same,LDL-lowering action,[1]; [4],84.4%
same,Transcription activation degree,human PPAR δ; final concentration 0.1 μM,0.73 Fold Increase
same,Transcription activation degree,human PPAR δ; final concentration 0.3 μM,1.09 Fold Increase
same,Transcription activation degree,human PPAR δ; final concentration 1.0 μM,1.02 Fold Increase
